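How tested: cells in 96-well plates exposed to compound for 48 hours at five concentrations. GI50: concentration for 50% inhibition of growth. TGI is the concentration that stops growth completely.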
What was measured:
Test in all cases: growth of human tumour cells (NCI), 48 h
SW-620 colon = tested on: SW-620 colon
IGROV1 ovarian = tested on: IGROV1 ovarian
MALME-3M melanoma = tested on: MALME-3M melanoma
SN12C renal = tested on: SN12C renal
SK-MEL-5 melanoma = tested on: SK-MEL-5 melanoma
NCI-H522 lung = tested on: NCI-H522 lung
A498 renal = tested on: A498 renal
MCF7 breast = tested on: MCF7 breast
NCI-H460 lung = tested on: NCI-H460 lung
SK-MEL-2 melanoma = tested on: SK-MEL-2 melanoma
PC-3 prostate = tested on: PC-3 prostate
KM12 colon = tested on: KM12 colon
CAKI-1 renal = tested on: CAKI-1 renal
786-0 renal = tested on: 786-0 renal
MOLT-4 leukemia = tested on: MOLT-4 leukemia
A549 NSCLC = tested on: A549 NSCLC
OVCAR-5 ovarian = tested on: OVCAR-5 ovarian
OVCAR-8 ovarian = tested on: OVCAR-8 ovarian
HT29 colon = tested on: HT29 colon
NCI/ADR-RES ovarian = tested on: NCI/ADR-RES ovarian
MDA-MB-435 = tested on: MDA-MB-435
MDA-MB-231 breast = tested on: MDA-MB-231 breast
UO-31 renal = tested on: UO-31 renal
HOP-62 NSCLC = tested on: HOP-62 NSCLC
SF-539 CNS = tested on: SF-539 CNS
UACC-62 melanoma = tested on: UACC-62 melanoma
CCRF-CEM leukemia = tested on: CCRF-CEM leukemia
HS 578T breast = tested on: HS 578T breast
SF-268 CNS = tested on: SF-268 CNS
U251 CNS = tested on: U251 CNS
HOP-92 NSCLC = tested on: HOP-92 NSCLC
NCI-H23 lung = tested on: NCI-H23 lung
RPMI-8226 leukemia = tested on: RPMI-8226 leukemia
SNB-75 CNS = tested on: SNB-75 CNS
SF-295 CNS = tested on: SF-295 CNS
HCT-116 colon = tested on: HCT-116 colon
SR leukemia = tested on: SR leukemia
RXF 393 renal = tested on: RXF 393 renal
UACC-257 melanoma = tested on: UACC-257 melanoma
ACHN renal = tested on: ACHN renal
OVCAR-4 ovarian = tested on: OVCAR-4 ovarian
M14 melanoma = tested on: M14 melanoma
LOX IMVI melanoma = tested on: LOX IMVI melanoma
TK-10 renal = tested on: TK-10 renal
HCT-15 colon = tested on: HCT-15 colon
NCI-H226 lung = tested on: NCI-H226 lung
EKVX NSCLC = tested on: EKVX NSCLC
DU-145 prostate = tested on: DU-145 prostate
HCC-2998 colon = tested on: HCC-2998 colon
COLO 205 colon = tested on: COLO 205 colon
SK-MEL-28 melanoma = tested on: SK-MEL-28 melanoma
SK-OV-3 ovarian = tested on: SK-OV-3 ovarian
SNB-19 CNS = tested on: SNB-19 CNS
K-562 leukemia = tested on: K-562 leukemia

`NC(N)=Nc1ccc(Oc2cccc(NC(N)=Nc3ccc(Cl)c(C(F)(F)F)c3)c2)cn1` gave a GI50 (SW-620 colon) of 1.94 µM, a TGI (SW-620 colon) of 4.83 µM and a GI50 (IGROV1 ovarian) of 1.07 µM. It also gave a TGI (IGROV1 ovarian) of 2.51 µM, a GI50 (MALME-3M melanoma) of 2.3 µM and a TGI (MALME-3M melanoma) of 7.91 µM. It also gave a GI50 (SN12C renal) of 2.2 µM, a TGI (SN12C renal) of 8.97 µM and a GI50 (SK-MEL-5 melanoma) of 2.53 µM. The TGI (SK-MEL-5 melanoma) was 6.94 µM, the GI50 (NCI-H522 lung) was 2.19 µM and the TGI (NCI-H522 lung) was 5.81 µM. It also gave a GI50 (A498 renal) of 1.69 µM, a TGI (A498 renal) of 6.24 µM and a GI50 (MCF7 breast) of 1.24 µM. The TGI (MCF7 breast) was 3.01 µM, the GI50 (NCI-H460 lung) was 1.48 µM and the TGI (NCI-H460 lung) was 3.6 µM. The GI50 (SK-MEL-2 melanoma) was 1.78 µM, the TGI (SK-MEL-2 melanoma) was 3.37 µM and the GI50 (PC-3 prostate) was 1.07 µM. For the same molecule, the TGI (PC-3 prostate) was 2.62 µM, the GI50 (KM12 colon) was 1.47 µM and the TGI (KM12 colon) was 2.9 µM. For the same molecule, the GI50 (CAKI-1 renal) was 3.29 µM, the TGI (CAKI-1 renal) was 17.4 µM and the GI50 (786-0 renal) was 4.83 µM. It also gave a TGI (786-0 renal) of 24.8 µM, a GI50 (MOLT-4 leukemia) of 2.16 µM and a TGI (MOLT-4 leukemia) of 8.08 µM. For the same molecule, the GI50 (A549 NSCLC) was 1.91 µM, the TGI (A549 NSCLC) was 17.4 µM and the GI50 (OVCAR-5 ovarian) was 1.89 µM. It also gave a TGI (OVCAR-5 ovarian) of 5.73 µM, a GI50 (OVCAR-8 ovarian) of 3.3 µM and a TGI (OVCAR-8 ovarian) of 18.7 µM. The GI50 (HT29 colon) was 1.91 µM, the TGI (HT29 colon) was 5.64 µM and the GI50 (NCI/ADR-RES ovarian) was 40.5 µM. The TGI (NCI/ADR-RES ovarian) was > 100 µM, the GI50 (MDA-MB-435) was 1.66 µM and the TGI (MDA-MB-435) was 3.66 µM. For the same molecule, the GI50 (MDA-MB-231 breast) was 1.99 µM, the TGI (MDA-MB-231 breast) was 5.23 µM and the GI50 (UO-31 renal) was 12.9 µM. It also gave a TGI (UO-31 renal) of 29.6 µM, a GI50 (HOP-62 NSCLC) of 2.05 µM and a TGI (HOP-62 NSCLC) of 5.76 µM. It also gave a GI50 (SF-539 CNS) of 1.54 µM, a TGI (SF-539 CNS) of 3.01 µM and a GI50 (UACC-62 melanoma) of 2.38 µM. It also gave a TGI (UACC-62 melanoma) of 12.7 µM, a GI50 (CCRF-CEM leukemia) of 2.27 µM and a TGI (CCRF-CEM leukemia) of 10.3 µM. The GI50 (HS 578T breast) was 1.78 µM, the TGI (HS 578T breast) was 4.63 µM and the GI50 (SF-268 CNS) was 1.09 µM. For the same molecule, the TGI (SF-268 CNS) was 2.54 µM, the GI50 (U251 CNS) was 1.26 µM and the TGI (U251 CNS) was 2.83 µM. The GI50 (HOP-92 NSCLC) was 1.16 µM, the TGI (HOP-92 NSCLC) was 3.43 µM and the GI50 (NCI-H23 lung) was 1.73 µM. It also gave a TGI (NCI-H23 lung) of 4.15 µM, a GI50 (RPMI-8226 leukemia) of 1.56 µM and a TGI (RPMI-8226 leukemia) of 4 µM. For the same molecule, the GI50 (SNB-75 CNS) was 0.515 µM, the TGI (SNB-75 CNS) was 2.92 µM and the GI50 (SF-295 CNS) was 2.08 µM. It also gave a TGI (SF-295 CNS) of 7.97 µM, a GI50 (HCT-116 colon) of 1.73 µM and a TGI (HCT-116 colon) of 4.86 µM. The GI50 (SR leukemia) was 1.42 µM, the TGI (SR leukemia) was 3.76 µM and the GI50 (RXF 393 renal) was 1.83 µM. The TGI (RXF 393 renal) was 4.78 µM, the GI50 (UACC-257 melanoma) was 2.87 µM and the TGI (UACC-257 melanoma) was 12.8 µM. The GI50 (ACHN renal) was 13.3 µM, the TGI (ACHN renal) was 29.4 µM and the GI50 (OVCAR-4 ovarian) was 2.53 µM. For the same molecule, the TGI (OVCAR-4 ovarian) was 9.36 µM, the GI50 (M14 melanoma) was 3.22 µM and the TGI (M14 melanoma) was 19.3 µM. For the same molecule, the GI50 (LOX IMVI melanoma) was 1.4 µM, the TGI (LOX IMVI melanoma) was 2.74 µM and the GI50 (TK-10 renal) was 4.35 µM. The TGI (TK-10 renal) was 21.7 µM, the GI50 (HCT-15 colon) was 19.6 µM and the TGI (HCT-15 colon) was 67.6 µM. The GI50 (NCI-H226 lung) was 2.18 µM, the TGI (NCI-H226 lung) was 6.25 µM and the GI50 (EKVX NSCLC) was 2.77 µM. The TGI (EKVX NSCLC) was 13.5 µM, the GI50 (DU-145 prostate) was 2.22 µM and the TGI (DU-145 prostate) was 5.27 µM. It also gave a GI50 (HCC-2998 colon) of 1.67 µM, a TGI (HCC-2998 colon) of 3.37 µM and a GI50 (COLO 205 colon) of 1.43 µM. It also gave a TGI (COLO 205 colon) of 3.08 µM, a GI50 (SK-MEL-28 melanoma) of 2.04 µM and a TGI (SK-MEL-28 melanoma) of 5.92 µM. The GI50 (SK-OV-3 ovarian) was 2.7 µM, the TGI (SK-OV-3 ovarian) was 10.4 µM and the GI50 (SNB-19 CNS) was 1.28 µM. For the same molecule, the TGI (SNB-19 CNS) was 2.68 µM, the GI50 (K-562 leukemia) was 1.51 µM and the TGI (K-562 leukemia) was 10.6 µM.
